Data on five molecules can be found in PMC8326117 (International Journal of Biological Sciences, 2021).

The subject of data set [1] is SARS-CoV-2 Spike-pseudovirus. As to conditions: in vivo.
In data set [2] the test system is SARS-CoV-2 Spike-pseudovirus. As to conditions: in vivo. The source holds these as a separate data set.
Data set [3] has as its system SARS-CoV-2 Spike-pseudovirus. As to conditions: in vivo. This is another data set of the same source.
The next data set has as its system SARS-CoV-2 S-protein. Type of data set: binding.
The next data set addresses S-protein RBD (Severe acute respiratory syndrome coronavirus 2, UniProt P0DTC2). Put plainly: LSPR assay, binding to S-protein RBD. Further details: species or system SARS-CoV-2. The conditions noted are these: pH 7.4. The protocol: LSPR analysis. Localized Surface Plasmon Resonance (LSPR) analysis was conducted with OpenSPRTM instrument (Nicoyalife, Canada). The COOH sensor chip was firstly installed on the OpenSPRTM instrument in accordance with the standard procedure. Run the buffer at the maximum flow rate (150 μL/min) and exhaust the bubble after reaching the signal baseline. Slow down the flow rate of buffer solution (PBS, pH 7.4) to 20 µL/min, then load 200 µL EDC/NHS (20 μL /min, 4min) solution to activate COOH sensor chips. […] The injection port was rinsed with buffer solution and emptied with air. Fill with 200 µL blocking solution (20 µL/min, 4 min), wash the sample ring with buffer solution and empty it with air. Observe baseline for 5 min to ensure stability. Next, the selected peptides were diluted into a series of solutions with different concentration, which were then injected into the chip with the concentration from low to high. The kinetic parameters of the binding reactions were calculated and analyzed by using TraceDrawer software (Ridgeview Instruments AB, Sweden).

For data set [4] the following is noted: mouse, in vivo.
The next data set deals with ACE2 (Homo sapiens, UniProt Q9BYF1). As to conditions: cited from earlier work.

“Also recorded” adds a separate entry of the source. No end group written: not given here.

Chain of ACE2 (Q9BYF1 18-805): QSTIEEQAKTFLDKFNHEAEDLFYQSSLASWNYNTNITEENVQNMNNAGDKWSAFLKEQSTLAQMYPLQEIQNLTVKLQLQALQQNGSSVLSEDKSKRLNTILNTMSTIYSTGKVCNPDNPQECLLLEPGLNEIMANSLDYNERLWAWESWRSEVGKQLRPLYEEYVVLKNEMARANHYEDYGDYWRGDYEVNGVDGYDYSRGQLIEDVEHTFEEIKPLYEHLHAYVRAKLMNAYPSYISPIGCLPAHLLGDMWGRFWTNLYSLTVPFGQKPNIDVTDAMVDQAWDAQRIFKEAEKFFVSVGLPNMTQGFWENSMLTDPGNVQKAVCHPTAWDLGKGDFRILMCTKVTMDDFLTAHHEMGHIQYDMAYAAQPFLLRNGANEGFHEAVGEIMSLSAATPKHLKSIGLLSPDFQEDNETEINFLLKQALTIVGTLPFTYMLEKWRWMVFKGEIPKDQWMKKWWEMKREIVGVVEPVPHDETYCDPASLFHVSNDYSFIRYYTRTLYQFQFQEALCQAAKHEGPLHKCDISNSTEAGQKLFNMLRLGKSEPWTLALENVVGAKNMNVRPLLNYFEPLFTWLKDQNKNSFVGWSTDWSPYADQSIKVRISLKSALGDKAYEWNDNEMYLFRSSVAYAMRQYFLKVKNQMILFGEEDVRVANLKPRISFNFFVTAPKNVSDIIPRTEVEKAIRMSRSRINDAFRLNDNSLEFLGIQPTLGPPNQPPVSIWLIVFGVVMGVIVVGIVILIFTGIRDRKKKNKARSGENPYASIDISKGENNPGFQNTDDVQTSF

In general, koff refers to the rate constant with which the complex falls apart. The low end stands for a long-lived complex, the high end for a short-lived complex. For orientation: kon means the second-order rate constant of association. A higher kon goes with fast association. On to KKKKKKDKFNHEAEDLFY [AYn1], for which the “luciferase IHC staining in lungs” value in data set [1] is given as “significantly ameliorated”. In addition, the “pseudovirus content in lungs (119 bp S-protein band)” value in data set [2] is recorded as “relative weak therapeutic effect”. Moreover, in the data set on HEK293T/hACE2 cells, the cytotoxicity result is “no significant cytotoxicity” and the “cytotoxicity (general statement)” value is “no cytotoxicity”. Further, in data set [3], the “pseudovirus infection / luciferin luminance” value is given as “relatively weaker impact on pseudovirus infection; also recorded: ameliorated; also recorded: failed to prevent pseudovirus infection in vivo”. Besides, the “protein-peptide interaction in pull-down” value in the data set on SARS-CoV-2 S-protein is “no protein signal was detected in negative and blank control lanes”. On S-protein RBD, this molecule registered an off-rate constant (koff) of 0.001 s⁻¹ and a kon of 10500 M⁻¹ s⁻¹. For the same molecule, in data set [4], the “distribution in livers and kidneys” value was “not in the kidneys and livers”; the “distribution in lungs and small intestine” value was “preferentially distributed in the lungs and intestine”.

With `Cc1cc(O)c2c(c1)C(=O)c1cc(O)cc(O)c1C2=O` [emodin], the ACE2 blocking result at ACE2 was “identified to block ACE2”.

Regarding `CN(C)CCOc1ccc(/C(=C(/CCCl)c2ccccc2)c2ccccc2)cc1` [toremifene], at ACE2, the ACE2 blocking entry was “identified to block ACE2”.

With `COc1ccc2[nH]cc(CCNC(C)=O)c2c1` [melatonin], the ACE2 blocking result on ACE2 is listed as “identified to block ACE2”.

Regarding `S=c1[nH]cnc2nc[nH]c12` [mercaptopurine], at ACE2, the ACE2 blocking entry is “identified to block ACE2”.
